Reference: publication PMC12341765, “Microenvironment-triggered multimodal precision diagnostics” (Nature materials, 2021)

Legend:
MC26 CRC lung tumors [1] = assay: 5-FU treatment of CRC lung disease model, monitored with PRISM (urine, PET-CT); assay type: in vivo, BALB/c mice; conditions: 5-FU 15 mg/kg i.p.
Procedure: 5-Fluorouracil (5-FU) was purchased (Sigma-Aldrich) and prepared as previously described.[47] 5-FU or vehicle control (DMSO) was administered by intraperitoneal injection at in a 0.2 mL volume starting 1 week after cell injection for metastasis-initiation experiments. A 15 mg/kg dose per treatment was used for all experiments. […] Experimental group sizes were practically associated according to the number of mice housed per cage (n=5 mice per cage). […] Tumor-bearing mice were closely monitored and euthanized following health-check advice given by an independent veterinary scientist responsible for animal welfare. […] Reconstructed PET and CT data were quantitatively evaluated using VivoQuant software (inviCRO Inc.). […] The radioactivity uptake values within CT-drawn organs were obtained from mean voxel values within the ROI and converted to percentage injected dose (ID) and then divided by mouse weight (g) to obtain an imaging ROI-derived percentage of the injected radioactive dose per gram of tissue (%ID/g). […] The tumor (or tissue) to tissue (i.e. lung to liver) ratio was calculated by dividing the mean lung by the mean liver %ID/g values. To quantify the radioactivity in diseased tissues ex vivo, tissues were harvested after perfusion with PBS and counts were collected using a 2480 WIZARD2 gamma counter (Perkin Elmer Inc.). […]

LS 174T tumors = assay: PET-CT imaging of low glucose uptake subcutaneous xenografts; design: species or system NCr nude mice; conditions: mouse, in vivo
MC26 CRC lung tumors [2] = conditions: mouse, in vivo

Compound | relative lung/liver ratio of PET-CT signal, no-treatment cohort versus cohort treated with chemotherapy (MC26 CRC lung tumors [1]; two weeks of treatment, 64Cu-PRISM PET-CT) | effect on tumor progression compared with non-treated cohort (MC26 CRC lung tumors [1]; urinary reporter signal and PET imaging, after a single week) | tumor uptake versus background tissue (LS 174T tumors) | background signal in the chest / heart accumulation on PET-CT (MC26 CRC lung tumors [2])
O=c1[nH]cc(F)c(=O)[nH]1 [5-FU, 5-Fluorouracil] | over 3 times | significantly inhibited tumor progression |  | 
OC[C@H]1OC(O)[C@H](F)[C@@H](O)[C@@H]1O (stereo partly shown) [18F-FDG, 18F-2-deoxyfluoroglucose] |  |  | indistinguishable from the background tissue | strong accumulation in the heart
